Measured values published in patent US11999727B2 (Tango Therapeutics, Inc., priority 2020, dated 2024).
Where two headings read alike, the source gives them in different places.

How the values were obtained:
[1] = molecular target: T1, PRMT5 (Homo sapiens, UniProt O14744); experiment: PRMT5 biochemical IC50 assay with SAM as cofactor; settings: PRMT5, SAM as cofactor; read-out: SAM IC50
T1 construct: purchased Viva (custom protein)

[2] = molecular target: T1, PRMT5; experiment: PRMT5 biochemical IC50 assay with MTA as cofactor; settings: PRMT5, MTA as cofactor; read-out: MTA IC50
[3] = tested on: HAP1 MTAP-deleted cell line; experiment: Viability assay, MTAP-deleted cell line; format: cell-based; settings: HAP1 MTAP-deleted, read-out: HAP1 MTAP deleted viability
Source text: Table 1 additionally indicates IC50 values in a viability assay for the MTAP-deleted cell line (column 10), indicating the effect of treatment with compound on cell survival.

[4] = tested on: HAP1 MTAP-intact cell line; experiment: SDMA in-cell western assay, HAP1 MTAP-intact; format: cell-based; settings: HAP1 MTAP-intact, read-out: MTAP HAP1 intact IC50
In short: (§1)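 Isogenic HAP1 pair: the MTAP-intact line expresses endogenous MTAP, and the deleted line is MTAP-null. Symmetric dimethylarginine was detected by in-cell western and IC50 values derived for each line.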

[5] = molecular target: T1, PRMT5; experiment: PRMT5 biochemical IC50 assay with no cofactor; settings: PRMT5, no cofactor; read-out: No Cofactor/rel IC50
Source text: Table 1 indicates IC50 values (μM) against PRMT5 for exemplary compounds in the presence of SAM as cofactor, with no cofactor, and with MTA as cofactor, respectively (columns 4-6). […] Ki values can be calculated from the IC50 values as described in the Examples section. As detailed in the Examples section, for the assay performed in the presence of SAM, IC50=Ki×1.5 (Ki=IC50/1.5).

[6] = tested on: HAP1 MTAP-deleted cell line; experiment: SDMA in-cell western assay, HAP1 MTAP-deleted; format: cell-based; settings: for IC50: HAP1 MTAP-deleted, read-out: HAP1 MTAP deleted IC50; for MTAP intact/deleted ratio: IC50 ratio HAP1 MTAP-intact / HAP1 MTAP-deleted
In short: as §1

[7] = Homo sapiens, HAP1, viability assay
[8] = Homo sapiens, HAP1, SDMA in-cell western

T1 sequence (O14744 whole entry): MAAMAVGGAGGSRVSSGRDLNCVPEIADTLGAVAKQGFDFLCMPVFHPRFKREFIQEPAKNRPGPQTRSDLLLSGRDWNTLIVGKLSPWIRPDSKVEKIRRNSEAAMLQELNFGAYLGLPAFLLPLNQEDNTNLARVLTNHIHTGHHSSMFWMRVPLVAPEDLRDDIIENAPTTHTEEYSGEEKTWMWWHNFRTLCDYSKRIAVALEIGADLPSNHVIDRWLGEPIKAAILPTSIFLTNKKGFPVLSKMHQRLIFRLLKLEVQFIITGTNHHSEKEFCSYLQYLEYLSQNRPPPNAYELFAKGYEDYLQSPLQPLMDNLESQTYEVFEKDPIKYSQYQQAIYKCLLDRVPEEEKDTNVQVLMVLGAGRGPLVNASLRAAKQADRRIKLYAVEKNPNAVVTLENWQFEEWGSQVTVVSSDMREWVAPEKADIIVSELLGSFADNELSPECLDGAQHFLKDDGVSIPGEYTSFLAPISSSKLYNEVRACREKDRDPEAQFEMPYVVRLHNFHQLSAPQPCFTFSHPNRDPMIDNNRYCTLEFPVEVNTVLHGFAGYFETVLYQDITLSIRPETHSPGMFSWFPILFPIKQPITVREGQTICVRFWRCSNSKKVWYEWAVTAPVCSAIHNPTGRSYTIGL
T1 sequence (Q9BQA1 whole entry partner): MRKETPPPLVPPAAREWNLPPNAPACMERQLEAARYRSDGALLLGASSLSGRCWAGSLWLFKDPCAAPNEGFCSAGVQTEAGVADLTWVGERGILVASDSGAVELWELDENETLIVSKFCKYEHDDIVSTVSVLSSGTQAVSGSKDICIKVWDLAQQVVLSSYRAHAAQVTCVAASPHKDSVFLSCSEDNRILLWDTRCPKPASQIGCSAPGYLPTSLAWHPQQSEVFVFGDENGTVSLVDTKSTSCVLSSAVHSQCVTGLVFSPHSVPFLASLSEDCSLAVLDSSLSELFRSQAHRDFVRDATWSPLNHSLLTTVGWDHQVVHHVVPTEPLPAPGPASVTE

IC50 [1] [µM]	IC50 [2] [µM]	IC50 [4, 8] [µM]	IC50 [5] [µM]	IC50 [6, 8] [µM]	IC50 ([6]; SDMA in-cell western) [µM]	IC50 ([4]; SDMA in-cell western) [µM]	Compound	IC50 [3, 7] [µM]	MTAP intact/deleted ratio ([6]; SDMA in-cell western)	IC50 ([3]; viability assay) [µM]
0.05 to 0.5	< 0.05	> 1	0.05 to 0.5	> 1	–	–	C[C@@H]1CC[C@@H](c2ccc3c(c2)CNC3=O)N(C(=O)C(=O)Nc2cncc(C(N)=O)c2)C1 (single isomer, unassigned) [Compound 740, 5-(2-(5-methyl-2-(1-oxoisoindolin-5-yl)piperidin-1-yl)-2-oxoacetamido)nicotinamide]	1 to 10	B (an IC50 ratio greater than or equal to 3 fold but lower than 10 fold)	–
> 0.5	> 0.5	> 1	> 0.5	> 1	–	–	C[C@H]1CC[C@H](c2ccc3c(c2)CNC3=O)N(C(=O)C(=O)Nc2cncc(C(N)=O)c2)C1 (single isomer, unassigned) [Compound 741, 5-(2-(5-methyl-2-(1-oxoisoindolin-5-yl)piperidin-1-yl)-2-oxoacetamido)nicotinamide]	> 10	C (an IC50 ratio of less than 3 fold)	–
0.05 to 0.5	< 0.05	> 1	0.05 to 0.5	0.1 to 1	–	–	COc1ncc(NC(=O)C(=O)N2C[C@H](C)CC[C@H]2c2cc(F)c(F)c(F)c2)cc1C(N)=O (single isomer, unassigned) [Compound 742]	1 to 10	A (an IC50 ratio greater than or equal to 10 fold)	–
0.05 to 0.5	< 0.05	> 1	< 0.05	0.1 to 1	–	–	C[C@@H]1CC[C@@H](c2ccc3c(c2)C(=O)NC3)N(C(=O)C(=O)Nc2cncc(C(N)=O)c2)C1 (single isomer, unassigned) [Compound 746]	1 to 10	A (an IC50 ratio greater than or equal to 10 fold)	–
0.05 to 0.5	< 0.05	0.1 to 1	< 0.05	< 0.1	–	–	CCc1cc(NC(=O)C(=O)N2C[C@@H](C)CC[C@@H]2c2ccc3[nH]cnc3c2)cnc1N (single isomer, unassigned) [Compound 748]	< 1	A (an IC50 ratio greater than or equal to 10 fold)	–
0.05 to 0.5	< 0.05	> 1	0.05 to 0.5	0.1 to 1	–	–	COc1ncc(NC(=O)C(=O)N2C[C@H](C)CC[C@H]2c2ccc3c(c2)CNC3=O)cc1C(N)=O (single isomer, unassigned) [Compound 749, 2-methoxy-5-(2-(5-methyl-2-(1-oxoisoindolin-5-yl)piperidin-1-yl)-2-oxoacetamido)nicotinamide]	1 to 10	A (an IC50 ratio greater than or equal to 10 fold)	–
> 0.5	> 0.5	> 1	> 0.5	> 1	–	–	COc1ncc(NC(=O)C(=O)N2C[C@@H](C)CC[C@@H]2c2ccc3c(c2)CNC3=O)cc1C(N)=O (single isomer, unassigned) [Compound 750, 2-methoxy-5-(2-(5-methyl-2-(1-oxoisoindolin-5-yl)piperidin-1-yl)-2-oxoacetamido)nicotinamide]	> 10	C (an IC50 ratio of less than 3 fold)	–
> 0.5	> 0.5	> 1	> 0.5	> 1	–	–	C[C@H]1CC[C@H](c2ccc3c(c2)C(=O)NC3)N(C(=O)C(=O)Nc2cncc(C(N)=O)c2)C1 (single isomer, unassigned) [Compound 751]	> 10	C (an IC50 ratio of less than 3 fold)	–
0.05 to 0.5	< 0.05	> 1	0.05 to 0.5	< 0.1	–	–	COc1ncc(NC(=O)C(=O)N2C[C@H](C)CC[C@H]2c2ccc(C)nc2)cc1C(N)=O (single isomer, unassigned) [Compound 754]	1 to 10	A (an IC50 ratio greater than or equal to 10 fold)	–
> 0.5	> 0.5	> 1	> 0.5	> 1	–	–	CCc1cc(NC(=O)C(=O)N2C[C@H](C)CC[C@H]2c2ccc(C)nc2)cnc1N (single isomer, unassigned) [Compound 756]	> 10	B (an IC50 ratio greater than or equal to 3 fold but lower than 10 fold)	–
0.05 to 0.5	< 0.05	> 1	< 0.05	< 0.1	–	–	COc1ncc(NC(=O)C(=O)N2C[C@H](C)CC[C@H]2c2ccc(NC(C)=O)cc2)cc1C(N)=O (single isomer, unassigned) [Compound 760]	< 1	A (an IC50 ratio greater than or equal to 10 fold)	–
> 0.5	> 0.5	> 1	> 0.5	> 1	–	–	COc1ncc(NC(=O)C(=O)N2C[C@@H](C)CC[C@@H]2c2ccc(NC(C)=O)cc2)cc1C(N)=O (single isomer, unassigned) [Compound 761]	> 10	C (an IC50 ratio of less than 3 fold)	–
< 0.05	< 0.05	< 0.1	< 0.05	< 0.1	–	–	Cc1cc(NC(=O)C(=O)N2C[C@@H](C)CC[C@@H]2c2ccc3[nH]c(=O)ccc3c2)cnc1N (single isomer, unassigned) [Compound 762]	< 1	B (an IC50 ratio greater than or equal to 3 fold but lower than 10 fold)	–
> 0.5	> 0.5	> 1	> 0.5	> 1	–	–	Cc1cc(NC(=O)C(=O)N2C[C@H](C)CC[C@H]2c2ccc3[nH]c(=O)ccc3c2)cnc1N (single isomer, unassigned) [Compound 763]	> 10	B (an IC50 ratio greater than or equal to 3 fold but lower than 10 fold)	–
0.05 to 0.5	< 0.05	> 1	0.05 to 0.5	0.1 to 1	–	–	CCOc1ncc(NC(=O)C(=O)N2C[C@@H](C)CC[C@@H]2c2ccccc2)cc1C(N)=O (single isomer, unassigned) [Compound 764]	1 to 10	A (an IC50 ratio greater than or equal to 10 fold)	–
> 0.5	> 0.5	> 1	> 0.5	> 1	–	–	CCOc1ncc(NC(=O)C(=O)N2C[C@H](C)CC[C@H]2c2ccccc2)cc1C(N)=O (single isomer, unassigned) [Compound 765]	> 10	C (an IC50 ratio of less than 3 fold)	–
> 0.5	> 0.5	> 1	> 0.5	–	> 1	–	[H][C@]1([C@]2([H])C[C@]3(C[C@H](O)C3)C2)CC[C@H](C)CN1C(=O)C(=O)Nc1cnc(N)c(C)c1 (single isomer, unassigned) [Compound 766]	> 10	C (an IC50 ratio of less than 3 fold)	–
0.05 to 0.5	0.05 to 0.5	> 1	> 0.5	> 1	–	–	[H][C@@]1([C@]2([H])C[C@@]3(C[C@H](O)C3)C2)CC[C@@H](C)CN1C(=O)C(=O)Nc1cnc(N)c(C)c1 (single isomer, unassigned) [Compound 767]	> 10	B (an IC50 ratio greater than or equal to 3 fold but lower than 10 fold)	–
0.05 to 0.5	0.05 to 0.5	–	0.05 to 0.5	–	0.1 to 1	> 1	[H][C@]1([C@]2([H])C[C@@]3(C[C@H](O)C3)C2)CC[C@H](C)CN1C(=O)C(=O)Nc1cnc(N)c(C)c1 (single isomer, unassigned) [Compound 768]	–	B (an IC50 ratio greater than or equal to 3 fold but lower than 10 fold)	> 10
> 0.5	> 0.5	–	> 0.5	–	> 1	> 1	[H][C@@]1([C@]2([H])C[C@]3(C[C@H](O)C3)C2)CC[C@@H](C)CN1C(=O)C(=O)Nc1cnc(N)c(C)c1 (single isomer, unassigned) [Compound 769]	–	C (an IC50 ratio of less than 3 fold)	> 10
> 0.5	> 0.5	> 1	> 0.5	> 1	–	–	COc1ncc(NC(=O)C(=O)N2C[C@@H](C)CC[C@@H]2c2ccc(C)nc2)cc1C(N)=O (single isomer, unassigned) [Compound 770]	> 10	C (an IC50 ratio of less than 3 fold)	–
